Experiments:
Assay type in all cases: in vivo
AFP model = assay: AFP animal model; details: AFP, Ph 2, timepoint 0.25 h
Excerpt: (§1) The efficacy of the compounds when evaluated in additional well-known animal models, AFP, RR, and hyperalgesia, was also explored.

RR model = assay: RR animal model
Excerpt: as §1

[1] = Pharmacokinetics after intravenous or oral dosing, plasma LC/MS/MS; details: fasted male Sprague Dawley rats, oral
Protocol: Fasted, male Sprague Dawley rats were dosed intravenously or orally. Blood samples were collected at pre-determined time points and plasma was separated. Test article concentrations were determined in plasma by a LC/MS/MS method. Non compartmental analysis was performed to estimate the area under the plasma concentration vs. time curve (AUC). Clearance parameters (CL), bioavailabilities (F) and half-lives were calculated.

Question: With Nc1nc(NCCOCCOC(F)(F)F)nnc1-c1cccc(Cl)c1Cl [Compound 45, 6-(2,3-Dichlorophenyl)-N^3-(2-(2-(trifluoromethoxy)ethoxy)ethyl)-1,2,4-triazine-3,5-diamine] as the compound, how does the “MED (mg/kg)” value (AFP model; minimum effective dose) read?
Answer: The value was 30 (Ph 2) mg/kg.

Question: What about the ED50 (AFP model; read-out: ED50) of the same compound?
Answer: The ED50 was 46.8 mg/kg.

Question: What about the ED50 (RR model; 0.5 h) of the same compound?
Answer: Its ED50 is 21 mg/kg.

Question: What about the ED50 (RR model; 1 h) of the same compound?
Answer: Its ED50 is 18.9 mg/kg.

Question: What about the “MED” value (RR model; timepoints 0.5, 1 h, minimum effective dose) of the same compound?
Answer: Its value is 30 mg/kg.

Question: What about the “exposure after oral dosing (qualitative ranking)” value [1] of the same compound?
Answer: The value was “best exposure after oral dosing”.

Source: US10189859B2, “Derivatives of 6-(2,3-dichlorophenyl)-1,2,4-triazin-5-amine” (Nektar Therapeutics, priority 2013, dated 2019)
